Measurements as given in US20120115724A1, “METHOD OF CONTROLLING UNDESIRED VEGETATION” (SYNGENTA CROP PROTECTION LLC, priority 2009, published 2012).

Columns and labels:
Type in all cases: in vivo
[1] = test system: AMARE Amaranthus retroflexus; assay: Post-emergence crop and weed test (Example 15); conditions: 360 h, after 15 days, read-out: Percentage damage AMARE
Method: (§1) Seeds of crop and representative weed species were sown in standard soil in pots. After cultivation for 14 days under controlled conditions in a glasshouse (at 22/16° C., day/night; 16 hours light; 65% humidity), the plants were sprayed. The spray solution was prepared by dissolving the technical active ingredient in acetone containing 10.56 wt % Emulsogen EL, 42.22 wt % N-methylpyrrolidone and 2.22 wt % DPG-monoethyl ether to give a 5% stock solution. This was then diluted with water containing 0.2% (v/v) of the adjuvant X-77 to give the desired treatment concentration.
(§2) The test plants were then grown on under controlled conditions in a glasshouse (at 22/16° C., day/night; 16 hours light; 65% humidity) and watered twice daily. After 15 days the test was evaluated (100 =total damage to plant; 0 =no damage to plant).

[2] = test system: ABUTH Abutilon theophrasti; assay: Post-emergence crop and weed test (Example 15); conditions: 360 h, after 15 days, read-out: Percentage damage ABUTH
Method: as §1, §2

[3] = test system: EPHHL Euphorbia heterophylla; assay: Post-emergence crop and weed test (Example 15); conditions: 360 h, after 15 days, read-out: Percentage damage EPHHL
Method: as §1, §2

IPOHE Ipomoea hederacea = assay: Post-emergence crop and weed test (Example 15); conditions: 360 h, after 15 days, read-out: Percentage damage IPOHE
Method: as §1, §2

CHEAL Chenopodium album = assay: Post-emergence crop and weed test (Example 15); conditions: 360 h, after 15 days, read-out: Percentage damage CHEAL
Method: as §1, §2

[4] = test system: XANST Xanthium strumarium; assay: Post-emergence crop and weed test (Example 15); conditions: 360 h, after 15 days, read-out: Percentage damage XANST
Method: as §1, §2

KCHSC Kochia scoparia = assay: Post-emergence crop and weed test (Example 15); conditions: Bassia scoparia, 360 h, after 15 days, read-out: Percentage damage KCHSC
Method: as §1, §2

SINAR Sinapis arvensis = assay: Post-emergence crop and weed test (Example 15); conditions: Mutarda arvensis, 360 h, after 15 days, read-out: Percentage damage SINAR
Method: as §1, §2

SIDSP Sida spinosa = assay: Post-emergence crop and weed test (Example 15); conditions: 360 h, after 15 days, read-out: Percentage damage SIDSP
Method: as §1, §2

VERPE Veronica persica = assay: Post-emergence crop and weed test (Example 15); conditions: 360 h, after 15 days, read-out: Percentage damage VERPE
Method: as §1, §2

[5] = test system: POLCO Polygonum convolvulus; assay: Post-emergence crop and weed test (Example 15); conditions: Fallopia convolvulus, 360 h, after 15 days, read-out: Percentage damage POLCO
Method: as §1, §2

GLXMA Soybean = assay: Post-emergence crop and weed test (Example 15); conditions: Glycine max, 360 h, after 15 days, read-out: Percentage damage GLXMA
Method: as §1, §2

GALAP Galium aparine = assay: Post-emergence crop and weed test (Example 15); conditions: 360 h, after 15 days, read-out: Percentage damage GALAP
Method: as §1, §2

[6] = test system: Echinochloa crus-galli (ECHCG); assay: Pre-emergence biological efficacy (Example 13); conditions: Echinochloa crus-galli, 312 h; pre-emergence, 1,000 g/ha, after 13 days; read-out: Percentage damage ECHCG
Method: (§3) Seeds of Alopecurus myosuroides (ALOMY), Setaria faberi (SETFA), Echinochloa crus-galli (ECHCG), Solanum nigrum (SOLNI), Amaranthus retroflexus (AMARE) and Ipomea hederaceae (IPOHE) were sown in standard soil in pots. After cultivation for one day under controlled conditions in a glasshouse (at 24/16° C., day/night; 14 hours light; 65% humidity), the plants were sprayed with an aqueous spray solution derived from the formulation of the technical active ingredient in acetone/water (50:50) solution containing 0.5% Tween 20 (polyoxyethylene sorbitan monolaurate, CAS RN 9005-64-5) to give a final dose of 250 or 1000g/ha of test compound. The test plants were then grown under controlled conditions in the glasshouse (at 24/16° C., day/night; 14 hours light; 65% humidity) and watered twice daily. After 13 days the test was evaluated (100 =total damage to plant; 0 =no damage to plant).

Setaria faberi (SETFA) [7] = assay: Pre-emergence biological efficacy (Example 13); conditions: Setaria faberi, 312 h; pre-emergence, 1,000 g/ha, after 13 days; read-out: Percentage damage SETFA
Method: as §3

[8] = test system: Amaranthus retroflexus (AMARE); assay: Pre-emergence biological efficacy (Example 13); conditions: Amaranthus retroflexus, 312 h; pre-emergence, 1,000 g/ha, after 13 days; read-out: Percentage damage AMARE
Method: as §3

[9] = test system: Alopecurus myosuroides (ALOMY); assay: Pre-emergence biological efficacy (Example 13); conditions: Alopecurus myosuroides, 312 h; pre-emergence, 1,000 g/ha, after 13 days; read-out: Percentage damage ALOMY
Method: as §3

Solanum nigrum (SOLNI) [10] = assay: Pre-emergence biological efficacy (Example 13); conditions: Solanum nigrum, 312 h; pre-emergence, 1,000 g/ha, after 13 days; read-out: Percentage damage SOLNI
Method: as §3

[11] = test system: Ipomea hederaceae (IPOHE); assay: Pre-emergence biological efficacy (Example 13); conditions: Ipomoea hederacea, 312 h; pre-emergence, 1,000 g/ha, after 13 days; read-out: Percentage damage IPOHE
Method: as §3

[12] = test system: Echinochloa crus-galli (ECHCG); assay: Post-emergence biological efficacy (Example 14); conditions: Echinochloa crus-galli, 312 h; post-emergence, 1,000 g/ha, after 13 days; read-out: Percentage damage ECHCG
Method: as §3, with “for 8 days” for “for one day”, “or 1000 g/ha” for “or 1000g/ha”, “grown on” for “grown”, “in a” for “in the”, “evaluated (100=total” for “evaluated (100 =total”, “plant; 0=no” for “plant; 0 =no”

Setaria faberi (SETFA) [13] = assay: Post-emergence biological efficacy (Example 14); conditions: Setaria faberi, 312 h; post-emergence, 1,000 g/ha, after 13 days; read-out: Percentage damage SETFA
Method: as §3, with “for 8 days” for “for one day”, “or 1000 g/ha” for “or 1000g/ha”, “grown on” for “grown”, “in a” for “in the”, “evaluated (100=total” for “evaluated (100 =total”, “plant; 0=no” for “plant; 0 =no”

[14] = test system: Amaranthus retroflexus (AMARE); assay: Post-emergence biological efficacy (Example 14); conditions: Amaranthus retroflexus, 312 h; post-emergence, 1,000 g/ha, after 13 days; read-out: Percentage damage AMARE
Method: as §3, with “for 8 days” for “for one day”, “or 1000 g/ha” for “or 1000g/ha”, “grown on” for “grown”, “in a” for “in the”, “evaluated (100=total” for “evaluated (100 =total”, “plant; 0=no” for “plant; 0 =no”

[15] = test system: Alopecurus myosuroides (ALOMY); assay: Post-emergence biological efficacy (Example 14); conditions: Alopecurus myosuroides, 312 h; post-emergence, 1,000 g/ha, after 13 days; read-out: Percentage damage ALOMY
Method: as §3, with “for 8 days” for “for one day”, “or 1000 g/ha” for “or 1000g/ha”, “grown on” for “grown”, “in a” for “in the”, “evaluated (100=total” for “evaluated (100 =total”, “plant; 0=no” for “plant; 0 =no”

Solanum nigrum (SOLNI) [16] = assay: Post-emergence biological efficacy (Example 14); conditions: Solanum nigrum, 312 h; post-emergence, 1,000 g/ha, after 13 days; read-out: Percentage damage SOLNI
Method: as §3, with “for 8 days” for “for one day”, “or 1000 g/ha” for “or 1000g/ha”, “grown on” for “grown”, “in a” for “in the”, “evaluated (100=total” for “evaluated (100 =total”, “plant; 0=no” for “plant; 0 =no”

[17] = test system: Ipomea hederaceae (IPOHE); assay: Post-emergence biological efficacy (Example 14); conditions: Ipomoea hederacea, 312 h; post-emergence, 1,000 g/ha, after 13 days; read-out: Percentage damage IPOHE
Method: as §3, with “for 8 days” for “for one day”, “or 1000 g/ha” for “or 1000g/ha”, “grown on” for “grown”, “in a” for “in the”, “evaluated (100=total” for “evaluated (100 =total”, “plant; 0=no” for “plant; 0 =no”

In the case of `C=Cc1c(NCc2ccco2)nc(C2CC2)nc1C(=O)OC` [Ref. Ex. F, 2-Cyclopropyl-5-ethenyl-4-(furan-2-ylmethylamino)-6-methoxycarbonyl-pyrimidine, reference compound], the pest or weed control at 125 g/ha [1] is reported as 40%, the pest or weed control at 125 g/ha [2] is reported as 60% and the pest or weed control at 125 g/ha [3] is reported as 80%. For the same molecule, the pest or weed control at 125 g/ha (IPOHE Ipomoea hederacea) was 70%, the pest or weed control at 125 g/ha (CHEAL Chenopodium album) was 80% and the pest or weed control at 125 g/ha [4] was 60%. For the same molecule, the pest or weed control at 125 g/ha (KCHSC Kochia scoparia) was 30%, the pest or weed control at 125 g/ha (SINAR Sinapis arvensis) was 80% and the pest or weed control at 125 g/ha (SIDSP Sida spinosa) was 60%. The pest or weed control at 125 g/ha (VERPE Veronica persica) was 0%, the pest or weed control at 125 g/ha [5] was 60% and the plant injury at 125 g/ha (GLXMA Soybean) was 80%. The pest or weed control at 125 g/ha (GALAP Galium aparine) was 80%.
With `C/C=C/c1c(N)nc(C2CC2)nc1C(=O)OC` [Ref. Ex. D, (E)-4-Amino-2-cyclopropyl-6-methoxycarbonyl-5-(prop-1-enyl)-pyrimidine, reference compound] the pest or weed control at 125 g/ha [1] was 60%, the pest or weed control at 125 g/ha [2] was 50% and the pest or weed control at 125 g/ha [3] was 80%. It also gave a pest or weed control at 125 g/ha (IPOHE Ipomoea hederacea) of 70%, a pest or weed control at 125 g/ha (CHEAL Chenopodium album) of 60% and a pest or weed control at 125 g/ha [4] of 60%. For the same molecule, the pest or weed control at 125 g/ha (KCHSC Kochia scoparia) was 10%, the pest or weed control at 125 g/ha (SINAR Sinapis arvensis) was 80% and the pest or weed control at 125 g/ha (SIDSP Sida spinosa) was 60%. It also gave a pest or weed control at 125 g/ha (VERPE Veronica persica) of 10%, a pest or weed control at 125 g/ha [5] of 20% and a plant injury at 125 g/ha (GLXMA Soybean) of 80%. For the same molecule, the pest or weed control at 125 g/ha (GALAP Galium aparine) was 80%.
With `C=Cc1c(N)nc(-c2ccc(Cl)nc2)nc1C(=O)OC` [Compound 8, 4-amino-2-(6-chloropyridin-3-yl)-5-ethenyl-6-methoxycarbonyl-pyrimidine] the pest or weed control at 1000 g/ha [6] was 0%, the pest or weed control at 1000 g/ha (Setaria faberi (SETFA) [7]) was 10% and the pest or weed control at 1000 g/ha [8] was 100%. It also gave a pest or weed control at 1000 g/ha [9] of 10%, a pest or weed control at 1000 g/ha (Solanum nigrum (SOLNI) [10]) of 40% and a pest or weed control at 1000 g/ha [11] of 40%. The pest or weed control at 250 g/ha ([1]; 250 g/ha) was 100%, the pest or weed control at 250 g/ha ([2]; 250 g/ha) was 60% and the pest or weed control at 250 g/ha ([3]; 250 g/ha) was 40%. The pest or weed control at 250 g/ha (IPOHE Ipomoea hederacea; 250 g/ha) was 50%, the pest or weed control at 250 g/ha (CHEAL Chenopodium album; 250 g/ha) was 100% and the pest or weed control at 250 g/ha ([4]; 250 g/ha) was 80%. It also gave a pest or weed control at 250 g/ha (KCHSC Kochia scoparia; 250 g/ha) of 60%, a pest or weed control at 250 g/ha (SINAR Sinapis arvensis; 250 g/ha) of 70% and a pest or weed control at 250 g/ha (SIDSP Sida spinosa; 250 g/ha) of 20%. It also gave a pest or weed control at 250 g/ha (VERPE Veronica persica; 250 g/ha) of 80%, a pest or weed control at 250 g/ha ([5]; 250 g/ha) of 60% and a plant injury at 250 g/ha (GLXMA Soybean; 250 g/ha) of 10%. The pest or weed control at 1000 g/ha [12] was 0%, the pest or weed control at 1000 g/ha (Setaria faberi (SETFA) [13]) was 0% and the pest or weed control at 1000 g/ha [14] was 100%. The pest or weed control at 1000 g/ha [15] was 0%, the pest or weed control at 1000 g/ha (Solanum nigrum (SOLNI) [16]) was 90% and the pest or weed control at 1000 g/ha [17] was 50%.
For `COC(=O)c1nc(-c2ccc(Cl)c(N(C)C)c2F)nc(N)c1Cl` [Ref. Ex. A, 4-Amino-5-chloro-2-(4-chloro-3-dimethylamino-2-fluorophenyl)-6-methoxycarbonyl-pyrimidine, reference compound], the pest or weed control at 30 g/ha ([1]; 30 g/ha) was 100%, the pest or weed control at 30 g/ha ([2]; 30 g/ha) was 90% and the pest or weed control at 30 g/ha ([3]; 30 g/ha) was 80%. For the same molecule, the pest or weed control at 30 g/ha (IPOHE Ipomoea hederacea; 30 g/ha) was 70%, the pest or weed control at 30 g/ha (CHEAL Chenopodium album; 30 g/ha) was 80% and the pest or weed control at 30 g/ha ([4]; 30 g/ha) was 90%. It also gave a pest or weed control at 30 g/ha (KCHSC Kochia scoparia; 30 g/ha) of 80%, a pest or weed control at 30 g/ha (SINAR Sinapis arvensis; 30 g/ha) of 70% and a pest or weed control at 30 g/ha (SIDSP Sida spinosa; 30 g/ha) of 80%. It also gave a pest or weed control at 30 g/ha (VERPE Veronica persica; 30 g/ha) of 70%, a pest or weed control at 30 g/ha ([5]; 30 g/ha) of 90% and a plant injury at 30 g/ha (GLXMA Soybean; 30 g/ha) of 50%. It also gave a pest or weed control at 30 g/ha (GALAP Galium aparine; 30 g/ha) of 30%.
